The melting point is the temperature, or range, at which the solid turns liquid. With `[H]/N=C(OC)/C(=N/OC)c1ccccc1CON=C(C)c1ccc(Cl)cc1` [Compound 1.13], the melting point fell in the range of 73 to 75 °C. Molecule `CO/N=C(N)/C(=N/OC)c1ccccc1CO/N=C(\C)c1ccc(Cl)cc1` [Compound 3.101] came in with a melting point of 76 to 78 °C. Then `CNC(=S)/C(=N/OC)c1ccccc1CON=C(C)c1ccc(Cl)cc1` [Compound 4.10], with 88 to 89 °C; and `CNC(=S)/C(=N/OC)c1ccccc1CO/N=C(\C)c1cccc(C(F)(F)F)c1` [Compound 4.51, N-methyl-2-[2-(methyl(3-trifluoromethylphenyl)oximinomethyl)phenyl]-2-methoximinothioacetamide], with 100 to 106 °C; and `C/N=C(OC)/C(=N/OC)c1ccccc1CO/N=C(\C)c1ccc(Cl)cc1` [Example H-4, N,O-dimethyl-2-[2-(methyl(4-chlorophenyl)oximinomethyl)phenyl]2-methoximinoacetimidate], with 79 to 80 °C.
